{"source": "patent US20180222953A1", "about": "“SARCOMERE BIOSENSOR AND METHODS OF USE THEREOF” (REGENTS OF THE UNIVERSITY OF MINNESOTA, priority 2017, published 2018)", "key": {"[1]": {"test_system": "isolated adult cardiac myocytes", "experiment": "Sarcomere length (SL) shortening in isolated Sarcometer Tg cardiac myocytes before and after treatment", "type": "cell-based, mouse", "conditions": "0.2 Hz stimulation; for SL contractile amplitude: 37° C.", "protocol": "Mice were injected with 0.25 cc 10,000U/ml heparin (McKesson cat#NDC 63739-964-25) and anesthetized 10 minutes later with 0.15 cc 50 mg/ml sodium pentobarbital (Vortech Pharmaceuticals). The heart was rapidly excised and placed in ice cold Krebs-Henseleit buffer (Sigma cat#K3753) modified with 25 mM HEPES (Sigma cat#H4034), 10 mM 2,3-Butanedione monoxime (Sigma cat#B0753), 30 mM Taurine (Sigma cat#T0625) and the aorta was cannulated. The mounted heart was placed on a perfusion system at 37° C. The heart was perfused with calcium free modified Krebs-Henseleit buffer with 2 mg/ml crudely purified collagenase for 10 minutes. The heart was then removed from the cannula, the atria were removed and the ventricles were dissected into pieces approximately 2 mm in diameter. The dissected ventricular tissue was then gently mechanically triturated in collagenase to liberate isolated myocytes. After brief low-speed centrifugation, isolated myocytes were resuspended in nominal calcium and 0.025 mg/ml bovine serum albumin (HyClone cat#SH30574.03) in a modified Kreb-Henseleit buffer. After the final trituration step, calcium was added back to the buffer step wise until reaching a final concentration of 2 mM CaCl2. Myocytes were plated on laminin-coated (ThermoFisher cat#23017015) glass coverslips in M199 media (Gibco cat#31100-035) containing 5% fetal bovine serum (HyClone cat#SH30071.03) and incubated for one hour at 37° C. with 5% CO2. After the one hour incubation, the media was changed to serum free M199 media and the myocytes were used for experiments within 5 hours.\n(§1) For real-time simultaneous sarcomere length and biosensor measurements, a modified Ionoptix Calcium and Contractility system was used. Sarcomere length changes were detected at 240 Hz sampling rate and fluorescence measurements were detected at 1000 Hz sampling rate with two photomultipler tubes. Measurements were made at 37° C. and a stimulation frequency of 0.2 Hz unless specified otherwise. For biosensor measurements, a Xenon arc lamp was used and filtered with a 500/10 nm hard-coated bandpass filter before entering the microscope turret. The microscope turret featured a 505 dichroic long pass filter. Fluorescent light from the sample was shunted through microscope side port where it was split by a dichroic mirror with light above 650 nm going towards the Myocam for sarcomere length detection and light below 650 nm being further shunted to an additional filter cube. In this final filter cube, a 565 nm dichroic long pass mirror split the light again. Light with wavelengths below 565 nm corresponding to the Clover protein was further cleaned up by a 534/20 nm hard-coated bandpass filter before reaching the photomultiplier tuber and light with wavelengths above 565 nm was further cleaned up by a 592/43 nm hard-coated bandpass filter before reaching the photomultiplier tube. For calcium fluorescence measurements, the mouse myocytes were pre-loaded for 20 minutes in M199 solution containing 1 μM Fura-2 AM (ThermoFisher Cat #F1221), and a ten minute period was allowed for deesterification. For calcium fluorescence measurements the 360/380 nm ratio was determined. For each myocyte, several contractions were measured, averaged, and analyzed using the IonWizard software.\nEight to twelve week old mice of both sexes were injected with 0.25 cc 10,000U/ml heparin and anesthetized 10 minutes later with 0.15 cc 50 mg/ml sodium pentobarbital. The heart was rapidly excised and placed in ice cold Krebs-Henseleit buffer modified with 25 mM HEPES, 10 mM 2,3-Butanedione monoxime, 30 mM Taurine and the aorta was cannulated. The mounted heart was placed on a perfusion system at 37° C. The heart was perfused with calcium free modified Krebs-Henseleit buffer with 2 mg/ml crudely purified collagenase for 10 minutes. The heart was then removed from the cannula, the atria were removed and the ventricles were dissected into pieces approximately 2 mm in diameter. […]"}, "[2]": {"test_system": "sarcomere activation (Sarcometer cTnC biosensor) in live cardiac myocytes", "experiment": "Sarcometer Clover fluorescence (FRET) transient in live cardiac myocytes before and after treatment", "type": "cell-based, mouse", "conditions": "0.2 Hz stimulation; for Sarcometer kinetics / Clover peak fluorescence intensity (Sarcometer amplitude): 37° C.", "protocol": "as §1\nEight to twelve week old mice of both sexes were injected with 0.25 cc 10,000U/ml heparin and anesthetized 10 minutes later with 0.15 cc 50 mg/ml sodium pentobarbital. The heart was rapidly excised and placed in ice cold Krebs-Henseleit buffer modified with 25 mM HEPES, 10 mM 2,3-Butanedione monoxime, 30 mM Taurine and the aorta was cannulated. The mounted heart was placed on a perfusion system at 37° C. The heart was perfused with calcium free modified Krebs-Henseleit buffer with 2 mg/ml crudely purified collagenase for 10 minutes. The heart was then removed from the cannula, the atria were removed and the ventricles were dissected into pieces approximately 2 mm in diameter. The dissected ventricular tissue was then gently mechanically triturated in collagenase to liberate isolated myocytes. After brief low-speed centrifugation, isolated myocytes were resuspended in nominal calcium and 0.025 mg/ml bovine serum albumin in a modified Kreb-Henseleit buffer. After the final trituration step, calcium was added back to the buffer step wise until reaching a final concentration of 2 mM CaCl2. Myocytes were plated on laminin-coated (ThermoFisher cat#23017015) glass coverslips in M199 media (Gibco cat#31100-035) containing 5% fetal bovine serum and incubated for one hour at 37° C. with 5% CO2. After the one hour incubation, the media was changed to serum free M199 media and the myocytes were used for experiments within 5 hours.\nFor real-time simultaneous sarcomere length and Sarcometer biosensor measurements, a modified Ionoptix Calcium and Contractility system was used. Sarcomere length changes were detected at 240 Hz sampling rate and fluorescence measurements were detected at 1000 Hz sampling rate with two photomultipler tubes (FIG. 9). Measurements were made at 37° C. and a stimulation frequency of 0.2 Hz unless specified otherwise. For Sarcometer measurements, a Xenon arc lamp was used and filtered with a 500/10 nm hard-coated bandpass filter before entering the microscope turret. The microscope turret featured a 505 dichroic long pass filter. […]"}, "[3]": {"test_system": "cardiac myocyte calcium transients", "experiment": "Fura-2 AM calcium transients in single cardiac myocytes", "type": "cell-based, mouse", "conditions": "10 μM, n=4 pairs", "protocol": "For real-time simultaneous sarcomere length and biosensor measurements, a modified Ionoptix Calcium and Contractility system was used. Sarcomere length changes were detected at 240 Hz sampling rate and fluorescence measurements were detected at 1000 Hz sampling rate with two photomultipler tubes. Measurements were made at 37° C. and a stimulation frequency of 0.2 Hz unless specified otherwise. For biosensor measurements, a Xenon arc lamp was used and filtered with a 500/10 nm hard-coated bandpass filter before entering the microscope turret. The microscope turret featured a 505 dichroic long pass filter. […] For calcium fluorescence measurements, the mouse myocytes were pre-loaded for 20 minutes in M199 solution containing 1 μM Fura-2 AM (ThermoFisher Cat #F1221), and a ten minute period was allowed for deesterification. For calcium fluorescence measurements the 360/380 nm ratio was determined. For each myocyte, several contractions were measured, averaged, and analyzed using the IonWizard software.\nFor real-time simultaneous sarcomere length and Sarcometer biosensor measurements, a modified Ionoptix Calcium and Contractility system was used. Sarcomere length changes were detected at 240 Hz sampling rate and fluorescence measurements were detected at 1000 Hz sampling rate with two photomultipler tubes (FIG. 9). […] For calcium fluorescence measurements the 360/380 nm ratio was determined. […]"}, "[4]": {"molecular_target": "TnC hydrophobic patch (Homo sapiens, UniProt P63316)", "conditions": "binds directly to the TnC hydrophobic patch; Oleszczuk et al. 2010; cited from earlier work"}, "[5]": {"conditions": "10 μM, before vs after treatment"}, "[6]": {"conditions": "10 μM, before vs after treatment, listed as PNB"}}, "note": "Entries after “also recorded” stand apart in the source; their conditions may differ."}
{"smiles": "COC(=O)N1CCN(Cc2cccc(NC(=O)Nc3ccc(C)nc3)c2F)CC1", "note": "[Omecamtiv mecarbil]", "values": [{"measurement": "SL contractile amplitude", "setting": "[1]; 250 nM, n=14 pairs", "value": "increased contractile amplitude"}, {"measurement": "SL contractile amplitude", "setting": "[1]; 250 nM, n=14 pairs, listed as OM", "value": "significant increase SL amplitude"}, {"measurement": "Sarcometer kinetics", "setting": "[2]; 250 nM", "value": "no effect"}, {"measurement": "Clover peak fluorescence intensity (Sarcometer amplitude)", "setting": "[2]; 250 nM, n=17 pairs", "value": "no difference in peak fluorescence intensity"}, {"measurement": "Clover peak fluorescence intensity (Sarcometer amplitude)", "setting": "[2]; 250 nM, n=17 pairs, listed as OM", "value": "no effect"}]}
{"smiles": "COc1ccc(-c2nc3ccc(C4=NNC(=O)CC4C)cc3[nH]2)cc1", "note": "(centres unmarked) [Pimobendan]", "values": [{"measurement": "SL contractile amplitude", "setting": "[1]; [5]", "value": "increased SL amplitude; also recorded: increased contractile amplitude"}, {"measurement": "Clover peak fluorescence intensity (Sarcometer amplitude)", "setting": "[2]; [5]", "value": "significant increase in Clover signal amplitude; also recorded: increased peak fluorescence intensity"}]}
{"smiles": "NCCCCCCNS(=O)(=O)c1cccc2c(Cl)cccc12", "note": "[W7, N-aminohexyl-5-chloro-1-naphthalenesulfonamide]", "values": [{"measurement": "SL contractile amplitude", "setting": "[1]; [5]", "value": "reduced SL amplitude; also recorded: decreased contractile amplitude"}, {"measurement": "Clover peak fluorescence intensity (Sarcometer amplitude)", "setting": "[2]; [5]", "value": "significantly depressed; also recorded: decreased peak fluorescence intensity"}, {"measurement": "calcium transient amplitude or kinetics", "setting": "[3]", "value": "unaltered; also recorded: no changes in calcium amplitude or kinetics"}, {"measurement": "decrease of TnI switch peptide binding", "setting": "[4]", "value": 13, "unit": "fold"}]}
{"smiles": "CC(C)NCC(O)c1ccc(O)c(O)c1", "note": "(centres unmarked) [isoproterenol]", "values": [{"measurement": "SL shortening amplitude", "setting": "[1]; 50 nM, 30° C., before vs after treatment, n=34 pairs", "value": "increase myocyte contraction; also recorded: increased shortening amplitude"}, {"measurement": "sarcomere dynamics kinetics (SL relaxation)", "setting": "[1]; 50 nM, 30° C., n=34 pairs", "value": "speed SL relaxation; also recorded: faster kinetics"}, {"measurement": "Clover fluorescence kinetics (transient decay rate)", "setting": "[2]; 50 nM, 30° C., n=24 pairs", "value": "significantly faster; also recorded: faster kinetics"}, {"measurement": "peak Clover fluorescence intensity", "setting": "[2]; 50 nM, 30° C., n=24 pairs", "value": "increased peak Clover fluorescence intensity"}]}
{"smiles": "Cc1ccc2c(c1)C(=O)[C@]1(O)CCN(c3ccc([N+](=O)[O-])cc3)C1=N2", "note": "[para-Nitroblebbistatin]", "values": [{"measurement": "SL contractile amplitude", "setting": "[1]; [5]", "value": "decreased contractile amplitude"}, {"measurement": "SL contractile amplitude", "setting": "[1]; [6]", "value": "effectively blocked contraction"}, {"measurement": "Sarcometer kinetics", "setting": "[2]; 10 μM", "value": "no significant effect"}, {"measurement": "Clover peak fluorescence intensity (Sarcometer amplitude)", "setting": "[2]; [5]", "value": "no difference in peak fluorescence intensity"}, {"measurement": "Clover peak fluorescence intensity (Sarcometer amplitude)", "setting": "[2]; [6]", "value": "no significant effect"}]}
